One series relates to Rabbit aortic cells. Nature of the series: Mitogenesis in rabbit aortic cells. The class given is cell-based. As for the experimental part: For each of the following experiments, aortic smooth muscle cells were obtained from 2-3 lb. New Zealand rabbits; these cells were cultured as described above, and evaluated for their responses to Hcy.
A further series deals with PDGG-AA. The series can be described thus: PDGG-AA release from TA-VSMCs. The class given is cell-based. The note with it: 0.2 mM.
In a further series the test system is rat liver cells. The note with it: cited from earlier work.
Series [1] concerns Rabbit aortic smooth muscle cells. The series can be described thus: Calcium uptake in rabbit aortic smooth muscle cells. It is filed as cell-based. The note with it: 10μM for 40 seconds. Here is the method:
For each of the following experiments, aortic smooth muscle cells were obtained from 2-3 lb. New Zealand rabbits; these cells were cultured as described above, and evaluated for their responses to Hcy. […] This response is similar to that of the embryonic cells (see above).

Series [2] deals with VSMC isolated from abdominal. Nature of the series: [3H]thymidine incorporation (DNA synthesis) in abdominal aorta VSMC. The class given is cell-based, chicken. The note with it: abdominal VSMC compared with N-VSMC. An excerpt: Smooth Muscle Culture: The thoracic (N) and abdominal (M) aorta of normal 16 and 18-day embryos were cleaned of fat, and the intima-media was isolated from the adventitia. The intima-media was enzymatically dispersed into a single cell suspensions by a combination of collagenase and elastase followed by trypsin. VSMC were placed in primary culture at a constant density of 2×10^4 cells/cm^2 in multiwell plates or 100 mm culture plates in Medium 199 supplemented with 10% fetal bovine serum (FMS) and 2 mM glutamine, in an atmosphere of 95% air: 5% Co2 at 37° C. Primary cultures were grown for 7 days before they were seeded into first passage at the same cell density and grown to confluence. Experiments were carried out between passages 3-6. Experimental conditions for all cells included 48 h in Medium 199 supplemented with 1% FBS prior to initiating and experiment.
DNA Synthesis: Growth factors were added directly to quiescent VSMCs in Medium 199 as described above. The cells were pulsed between 4-6 h with a final concentration of 2-5 μCi/ml [^3H]thymidine added at the times and for the periods indicated in the figure legends. The cells were washed, and the incorporation of [^3H]thymidine into acid insoluble material was determined as previously described. Den-Heijer, M. et al. (1996), Hyperhomocystinemia as a risk factor for deep-vein thrombosis. N. Eng. J. Med. 334(12):759-762.
(In general: Incorporation of labelled thymidine or its analogues reports DNA synthesis.)

Series [3] has as its system c-myb. The series can be described thus: c-myb expression in N-VSMC (RT-PCR, immunoprecipitation and western blot). It is filed as cell-based, chicken. Here is the method: FIGS. 3A, 3B and 3C are RNA blot analyses of c-fos and c-myb mRNA isolated from N-VSMC cultures. Cultures were incubated in the absence and presence of 200μM H[cys] for 0, (lane 1); 15 min, (lane 2); 30 min, (lane 3); 45 min, (lane 4) and 60 min, (lane 5); and analyzed for c-fos expression. In FIG. 3B, the time course of c-myb MRNA induction in the presence of 200μM H[cys] for 0 h, (lane 1); 8 h, (lane 2); 16 h, (lane 3); 24 h, (lane 4). The c-fos transcripts were analyzed by northern blot and normalized to β actin expression. The amount of c-myb mRNA levels were normalized to estrogen receptor (ER) transcripts as determined by RT-PCR. […] The amount of c-myb mRNA levels were normalized to estrogen receptor (ER) transcripts as determined by RT-PCR. The amount of specific radiolabeling in the autoradiograph was quantified by scanning densitometry. The size of the c-Myb protein is 75 kilodaltons. The 75 kilodalton band is defined as c-Myb because immunoprecipitation of this protein was not detected in the presence of synthetic polypeptide [[…] encoded by sequences 1080-1133].
FIG. 4 is a graph illustrating the analysis of c-myb synthesis in response to NMDA receptor antagonist, Mk-801 and CGS19755. Immunoprecipitation and western blotting of radiolabeled c-Myb from N-VSMC treated with 200μMH[cys] in the presence and absence of 50 μM Mk-801 or 1 mM CGS19755. Cell cultures were treated with and without H[cys] for 24 hours, extracts were immunoprecipitated with anti c-myb IgG and samples were separated by SDS-PAGE gels and western blotted. The amount of specific radiolabeling in the autoradiograph was quantified by scanning densitometry. The size of the c-Myb protein is 75 kilodaltons. The 75 kilodalton band is defined as c-Myb because immunoprecipitation of this protein was not detected in the presence of synthetic polypeptide [I13-[…] encoded by sequences 1080-1133].
RNA Blot Analysis: Total RNA was isolated from VSMC derived from thoracic and abdominal aorta by homogenization, and lysis with guanidinium isothiocyanate was followed by phenol-chloroform extraction. Ten micrograms of total RNA per lane was separated in a 1.5% agarose-formaldehyde gel, and the RNA was transferred by capillary transfer to a 0.45 μm nylon membrane. Filters were hybridized as previously with cDNAs labeled with [^32P]deoxycytidine5′-triphosphate to specific activities of approximately 2×10^9 cpm/μg using a random prime labeling kit (Boehringer Mannheim Biochemicals, Indianapolis, Ind.). The probes included chicken c-fos, Bactin, estrogen receptor (ER) and c myb.
Reverse Transcriptase-Polymerase Chain Reaction: Reverse transcription of 4 to 10,000 nanograms (ng) of RNA using 10 picomoles (pm) of hexamer primers was performed for 90 minutes (min) at 37° C. using 200 units superscript reverse transcriptase (Gibco BRL), in 50 mM Tris, pH, 8.2, 75 Mm KC1, 3 mM MgCl2, 10 mM dithiothreitol (DTT), 1 unit/μ1 RNasin (Promega), and 1 mM each of DATP, dCTP, dGTP, and dTTP. The samples were heated at 95° C. for 5 min to terminate the reverse transcription. The resulting cDNA was treated with 1 unit of […] at 37° C. for 20 min. A 5% fraction of the cDNA was subjected to PCR using c-myb upstream (5′ggTCCTTTgAAgATgCTgCC3′) and downstream(5′[…]gAgTCCgggTTg3′) primers; estrogen receptor (ER) (5′ggACTgCCAgCTgCCgATCTT3′) and (5′CTCACgAATgTggCgCCT3′) primers; β actin (5′AAgAggTAATCCTgACCCCTgAA3′) and (5′ACCCTgACCATCAgggAgTTCA3′) primers. PCR was performed using 0.25 μM of each primer, 3 μM cDNA, 0.2 mM of each deoxynucleotide triphosphate, 75 mM KC1, 1.5 mM MgCl2 and 0.5 unit Taq polymerase (Perkin Elmer; Cetus) in 10 mM Tris-HC1, pH 8.3 with total volume of 100 μl. […] PCR products were analyzed by electrophoresis in 1.5% agarose gels stained with ethidium bromide. PCR amplifications of all target templates and controls were run in parallel or on the same sample. […]
(In western blotting, separated proteins are transferred to a membrane and probed.)

Series [4] has as its system c-myb. The series can be described thus: c-myb expression in TA-VSMCs. It is filed as cell-based.

We go through one compound from patent publication US6469027B1, “N-methyl-D-aspartate (NMDA) receptor blockers for the prevention of atherosclerosis” (The Board of Regents of the University of Nebraska, priority 1996, dated 2002).

`N[C@@H](CCS)C(=O)O` [homocysteine]: the mitogenic response result with Rabbit aortic cells is “robust mitogenic response”. For the same compound, the “delay in PDGG-AA release” value in the series with PDGG-AA is listed as “not observed”. Also, the “protein bound H[cys] in the microsomal fraction” value in the series with rat liver cells is reported as 50%. Also, the calcium flux entry in series [1] was “significant calcium flux”. In addition, in series [2], the “effect on DNA synthesis” value is given as “did not respond similarly”. For the same compound, the “c-myb mRNA transcripts induced” value with c-myb [3] (200 μM homocysteine) stood at 6 fold. Besides, the cMyb protein result in the series with c-myb [3] (30 and 100 μM) was “dose dependent increase”. Further, the c-myb induction entry with c-myb [3] (neural crest derived smooth muscle cells) was “induced”. Further, in the series on c-myb [4], the c-myb synthesis result is on record as “dose-dependent increase” and the “concentration of maximal effect on c-myb synthesis” value is reported as below 2.5 mM.
